Assay results from US5145954A, “Derivatives of alphaphenylacrylic acid and their use in agriculture” (Imperial Chemical Industries PLC, priority 1986, dated 1992).

How the values were obtained:
Format in all cases: in vivo
Erysiphe graminis = assay: foliar fungal disease test on plants, Erysiphe graminis (barley); settings: 100 ppm foliar spray plus root drench ca. 40 ppm a.i./dry soil; inoculated 24 hours before treatment
Plasmopara viticola = assay: foliar fungal disease test on plants, Plasmopara viticola (vine); settings: 100 ppm foliar spray plus root drench ca. 40 ppm a.i./dry soil; protectant
Puccinia recondita = assay: foliar fungal disease test on plants, Puccinia recondita (wheat); settings: 100 ppm foliar spray plus root drench ca. 40 ppm a.i./dry soil; protectant
Pyricularia oryzae = settings: 100 ppm foliar spray plus root drench ca. 40 ppm a.i./dry soil; protectant
Wheat = assay: whole plant screen for plant growth regulating activity, wheat; settings: 4000 ppm (4 kg/ha), after 2-6 weeks
Experimental: (§1) These compounds were tested on a whole plant screen for plant growth regulating activity against six species of plant. The plant species used in this screen are presented in Table VIII with the leaf stage at which they were sprayed.
(§2) A formulation of each chemical was applied at 4000 ppm (4 kg/ha in a 1000 1/ha field volume) using a tracksprayer and a SS8004E (Teejet) nozzle. Additional tests were done on tomatoes at 2000 and 500 ppm.
(§3) After spraying, the plants were grown in a glasshouse with 25° C. day/22° C. night temperatures. The exception to this were the temperate cereals, wheat and barley which were grown in 13°-16° C. day/11°-13° C. night temperatures. Supplementary lighting was supplied when necessary to provide an average photoperiod of 16 hours (14 hours minimum).
(§4) After 2-6 weeks in the glasshouse, depending on species and time of year, the plants were visually assessed for morphological characteristics against a control plant sprayed with a blank formulation.
Wheat WW Timmo 1-1.5 leaves

Venturia inaequalis = assay: foliar fungal disease test on plants, Venturia inaequalis (apple); settings: 100 ppm foliar spray plus root drench ca. 40 ppm a.i./dry soil; protectant
Cercospora arachidicola = assay: foliar fungal disease test on plants, Cercospora arachidicola (peanut); settings: 100 ppm foliar spray plus root drench ca. 40 ppm a.i./dry soil; protectant
Tomato = assay: whole plant screen for plant growth regulating activity, tomato; design: key to greening effect, TO* / greening effect, TO^+ / apical damage, TO* / tillering or side shooting, TO* / apical damage, TO^+ / tillering or side shooting, TO^+: Greening effect; Apical damage; Tillering or side shooting; settings: after 2-6 weeks
Experimental: as §1, §2, §3, §4
To- TO Ailsa 2-21/2 leaves

Rice = assay: whole plant screen for plant growth regulating activity, rice; settings: 4000 ppm (4 kg/ha), after 2-6 weeks
Experimental: as §1, §2, §3, §4
Rice RC Ishikari 2-21/2 leaves

Maize = assay: whole plant screen for plant growth regulating activity, maize; design: key: Greening effect; Apical damage; Tillering or side shooting; settings: 4000 ppm (4 kg/ha), after 2-6 weeks
Experimental: as §1, §2, §3, §4

[1] = tested on: Tetranychus urticae (spider mites - ova); assay: insecticidal test TUe, spider mites ova, contact; settings: 500 ppm, French bean leaf, duration 6
Experimental: (§5) The activity of the compound was determined using a variety of insect, mite and nematode pests. The compound was used in the form of liquid preparations containing from 100 to 500 parts per million (ppm) by weight of the compound. The preparations were made by dissolving the compound in acetone and diluting the solutions with water containing 0.1% by weight of a wetting agent sold under the trade name "SYNPERONIC" NX until the liquid preparations contained the required concentration of the product. "SYNPERONIC" is a Registered Trade Mark.
(§6) The test procedure adopted with regard to each pest was basically the same and comprised supporting a number of the pests on a medium which was usually a host plant or a foodstuff on which the pests feed, and treating either or both the pests and the medium with the preparations. The mortality of the pests was then assessed at periods usually varying from one to seven days after the treatment. […]

Blattella germanica = assay: insecticidal test BG, cockroach nymphs, residual; settings: 500 ppm, plastic pot, duration 3
Experimental: as §5, §6

Diabrotica balteata = assay: insecticidal test DB, rootworm larvae, residual; settings: 500 ppm, filter paper/maize seed, duration 3
Experimental: as §5, §6

[2] = tested on: Tetranychus urticae (spider mites - adult); assay: insecticidal test TUa, spider mites adult, contact; settings: 500 ppm, French bean leaf, duration 3
Experimental: as §5, §6

Meloidogyne incognita = assay: nematode test MI, tomato root knot eelworm larvae, semi in-vitro, residual; settings: 125 ppm, duration 7
Experimental: as §5, §6

Spodoptera exigua = assay: insecticidal test SP, lesser army worm larvae, residual; settings: 500 ppm, cotton leaf, duration 3
Experimental: as §5, §6

Heliothis virescens = assay: insecticidal test HV, tobacco budworm larvae, residual; settings: 500 ppm, cotton leaf, duration 3
Experimental: as §5, §6

Musca domestica [3] = assay: insecticidal test MD, houseflies adults, contact; settings: 500 ppm, cotton wool/sugar, duration 1
Experimental: as §5, §6

Musca domestica [4] = assay: whole plant or invertebrate
Experimental: A sample of compound 9 was diluted in 2 mls acetone and made up to a 2000 ppm solution with 0.1% aqueous synperonic solution. The solution (1 ml) was then sprayed directly onto twenty mixed sex houseflies held in a drinking cup. Immediately after spraying the cups were inverted and left to dry. An assessment of knockdown was made when the cups were righted 15 minutes later. The flies were then provided with a 10% sucrose solution on a cotton wool pad, and held for 48 hours in a holding room conditioned at 25° C. and 65% relative humidity before a mortality assessment was made.

Nilaparvata lugens = assay: insecticidal test NL, brown plant hopper nymphs, contact; settings: 500 ppm, rice plant, duration 3
Experimental: as §5, §6

Myzus persicae = assay: insecticidal test MP, aphids, contact; settings: 500 ppm, Chinese cabbage leaf, duration 3
Experimental: as §5, §6

Structure (SMILES) | disease control grade, ERYSIPHE GRAMINIS (Barley) (Erysiphe graminis) | disease control grade, PLASMOPARA VITICOLA (Vine) (Plasmopara viticola) | disease control grade, PUCCINIA RECONDITA (Wheat) (Puccinia recondita) | disease control grade, P[…] (Rice) (Pyricularia oryzae) | disease control grade, VENTURIA INAEQUALIS (Apple) (Venturia inaequalis) | disease control grade, CERCOSPORA ARACHIDICOLA (Peanut) (Cercospora arachidicola) | greening effect, TO^+ (Tomato; 500 ppm) | retardation, TO^+ (Tomato; 500 ppm) | retardation, TO* (Tomato; 2000 ppm) | also measured
COC(=O)/C(=C/SC)c1ccccc1Oc1ccccc1 [1 of Table II] | 3 (trace - 5% of disease on untreated plants) | 4 | 4 | 2 (6-25% of disease on untreated plants) | 4 | 0 (60-100% of disease on untreated plants) | G | 1 (10-30%) | 1 (10-30%) | retardation, WW (Wheat): 1 (10-30%)
COC(=O)/C(=C/SC)c1ccccc1 [1 of Table I] | 0 (60-100% of disease on untreated plants) | 0 (60-100% of disease on untreated plants) | 0 (60-100% of disease on untreated plants) | 1 (26-59% of disease on untreated plants) | 0 (60-100% of disease on untreated plants) | 0 (60-100% of disease on untreated plants) | – | 1 (10-30%) | 1 (10-30%) | retardation, RC (Rice): 2 (21-60%)
COC(=O)/C(=C/SC)c1ccccc1/C=C/c1ccccc1 [9 of Table I] | 0 (60-100% of disease on untreated plants) | 0 (60-100% of disease on untreated plants) | 3 (trace - 5% of disease on untreated plants) | 4 | 4 | 1 (26-59% of disease on untreated plants) | G | – | – | apical damage, TO^+ (Tomato; 500 ppm): A; tillering or side shooting, TO^+ (Tomato; 500 ppm): T; apical damage, TO* (Tomato; 2000 ppm): A; greening effect, TO* (Tomato; 2000 ppm): G; tillering or side shooting, TO* (Tomato; 2000 ppm): T
COC(=O)/C(=C/SC)c1ccccc1CCc1ccc(F)cc1 [96 of Table I] | 0 (60-100% of disease on untreated plants) | 0 (60-100% of disease on untreated plants) | 0 (60-100% of disease on untreated plants) | 0 (60-100% of disease on untreated plants) | 3 (trace - 5% of disease on untreated plants) | 0 (60-100% of disease on untreated plants) | G | – | 1 (10-30%) | apical damage, MZ (Maize): A; greening effect, MZ (Maize): G
COC(=O)/C(=C\SC)c1ccccc1/C=C/c1ccccc1 [10 of Table I] | 0 (60-100% of disease on untreated plants) | 4 | 2 (6-25% of disease on untreated plants) | 3 (trace - 5% of disease on untreated plants) | 4 | 4 | – | – | – | –
COC(=O)/C(=C\SC)c1ccccc1 [2 of Table I] | 0 (60-100% of disease on untreated plants) | 1 (26-59% of disease on untreated plants) | 0 (60-100% of disease on untreated plants) | 0 (60-100% of disease on untreated plants) | 0 (60-100% of disease on untreated plants) | 0 (60-100% of disease on untreated plants) | G | 2 (21-60%) | 1 (10-30%) | greening effect, TO* (Tomato; 2000 ppm): G; retardation, RC (Rice): 1 (10-30%)
COC(=O)/C(=C/SC)c1ccccc1/C=C/c1ccccc1 [Compound 9 of Table I] | – | – | – | – | – | – | – | – | – | grading of mortality, TUE [1]: 0 (less than 50% mortality); grading of mortality, BG (Blattella germanica): 0 (less than 50% mortality); grading of mortality, DB (Diabrotica balteata): 5 (50-79% mortality); grading of mortality, TUA [2]: 0 (less than 50% mortality); grading of root knot reduction, MI* (Meloidogyne incognita): 9 (70-100% root knot reduction as compared to an untreated plant for Meloidogyne incognita); grading of mortality, SP (Spodoptera exigua): 0 (less than 50% mortality); grading of mortality, HV (Heliothis virescens): 0 (less than 50% mortality); grading of mortality, MD (Musca domestica [3]): 5 (50-79% mortality); knockdown (Musca domestica [4]; 1 ml of 2000 ppm solution sprayed on twenty houseflies, assessed 15 minutes later): 88%; mortality at 2000 ppm (Musca domestica [4]; Musca domestica, topical, 48 h, read-out: kill): 15%; grading of mortality, NL (Nilaparvata lugens): 0 (less than 50% mortality); grading of mortality, MP (Myzus persicae): 0 (less than 50% mortality)
